Data from ChEMBL document CHEMBL1201862, “PubChem BioAssay data set” (2004).
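Method: 48-hour compound exposure of cells in 96-well plates, five concentrations, linear interpolation of endpoints. GI50 is the concentration that inhibits growth by half.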 Active and inactive are the calls of the source. No stated cut-off is given here; in the data, active = GI50 up to about 1.1 µM and inactive = higher.

Tests used:
Experiment in all cases: NCI-60 cell line screen, 48 h
NCI-H226 = system: NCI-H226
NCI-H23 = system: NCI-H23
HT-29 = system: HT-29
HOP-92 = system: HOP-92
COLO 205 = system: COLO 205
UACC-62 = system: UACC-62
Malme-3M = system: Malme-3M
NCI/ADR-RES = system: NCI/ADR-RES
KM12 = system: KM12
MDA-N = system: MDA-N
OVCAR-5 = system: OVCAR-5
HOP-62 = system: HOP-62
SK-MEL-5 = system: SK-MEL-5
RPMI-8226 = system: RPMI-8226
BT-549 = system: BT-549
EKVX = system: EKVX
A549 = system: A549
RXF 393 = system: RXF 393
A498 = system: A498
NCI-H522 = system: NCI-H522

Compound	GI50 (NCI-H226)	GI50 (NCI-H23)	GI50 (HT-29)	GI50 (HOP-92)	GI50 (COLO 205)	GI50 (UACC-62)	GI50 (Malme-3M)	GI50 (NCI/ADR-RES)	GI50 (KM12)	GI50 (MDA-N)	GI50 (OVCAR-5)	GI50 (HOP-62)	GI50 (SK-MEL-5)	GI50 (RPMI-8226)	GI50 (BT-549)	GI50 (EKVX)	GI50 (A549)	GI50 (RXF 393)	GI50 (A498)	GI50 (NCI-H522)
O=C(O)C1(C(=O)O)CCN(S(=O)(=O)c2ccccc2)CC1	> 100 µM (inactive)	> 100 µM (inactive)	> 100 µM (inactive)	> 100 µM (inactive)	> 100 µM (inactive)	> 100 µM (inactive)	> 100 µM (inactive)	> 100 µM (inactive)	> 100 µM (inactive)	> 100 µM (inactive)	> 100 µM (inactive)	> 100 µM (inactive)	> 100 µM (inactive)	> 100 µM (inactive)	> 100 µM (inactive)	> 100 µM (inactive)	> 100 µM (inactive)	> 100 µM (inactive)	> 100 µM (inactive)	> 100 µM (inactive)
Cc1cccc2c1c(=O)c1c(O)cc3c(c1n2C)C=CC(C)(C)O3	96.4 µM (inactive)	> 100 µM (inactive)	9.1 µM (inactive)	> 100 µM (inactive)	33.7 µM (inactive)	> 100 µM (inactive)	> 100 µM (inactive)	> 100 µM (inactive)	70.3 µM (inactive)	> 100 µM (inactive)	> 100 µM (inactive)	> 100 µM (inactive)	75 µM (inactive)	> 100 µM (inactive)	> 100 µM (inactive)	33.9 µM (inactive)	> 100 µM (inactive)	> 100 µM (inactive)	> 100 µM (inactive)	> 100 µM (inactive)
CN1C(=O)c2ccccc2C(O)(c2ccccc2)C1(O)c1ccccc1 (stereo not given)	> 100 µM (inactive)	81.8 µM (inactive)	> 100 µM (inactive)	14.4 µM (inactive)	> 100 µM (inactive)	64.4 µM (inactive)	> 100 µM (inactive)	> 100 µM (inactive)	> 100 µM (inactive)	> 100 µM (inactive)	> 100 µM (inactive)	> 100 µM (inactive)	74.6 µM (inactive)	56.4 µM (inactive)	81.1 µM (inactive)	81.5 µM (inactive)	69.5 µM (inactive)	83.9 µM (inactive)	> 100 µM (inactive)	> 100 µM (inactive)
CC(C)NC(=O)OCc1c(COC(=O)NC(C)C)c(-c2ccc[n+](COC(=O)C(C)C)c2)n2c1CCC2	> 100 µM (inactive)	33.5 µM (inactive)	73.8 µM (inactive)	44.1 µM (inactive)	> 72.3 µM (inactive)	26.9 µM (inactive)	> 63.5 µM (inactive)	63.7 µM (inactive)	> 100 µM (inactive)	> 100 µM (inactive)	> 100 µM (inactive)	> 63.5 µM (inactive)	> 94.4 µM (inactive)	55.2 µM (inactive)	81.1 µM (inactive)	> 100 µM (inactive)	> 91.4 µM (inactive)	42.4 µM (inactive)	23.1 µM (inactive)	34.5 µM (inactive)
CC(=O)C1=C(C)N2C(=NC3=C(CCc4ccccc43)C2c2ccc(Cl)cc2)S1 (stereo not given)	> 100 µM (inactive)	71.1 µM (inactive)	7.45 µM (inactive)	31 µM (inactive)	21.4 µM (inactive)	58.7 µM (inactive)	48.5 µM (inactive)	> 73.8 µM (inactive)	33.3 µM (inactive)	46.8 µM (inactive)	> 100 µM (inactive)	> 100 µM (inactive)	26.1 µM (inactive)	2.12 µM (inactive)	> 100 µM (inactive)	46.8 µM (inactive)	53.8 µM (inactive)	5.56 µM (inactive)	20.7 µM (inactive)	6.53 µM (inactive)
CC(=O)Nc1cc2cc(NS(=O)(=O)c3cc(C(F)(F)F)cc(C(F)(F)F)c3)ccc2oc1=O	> 100 µM (inactive)	> 100 µM (inactive)	> 100 µM (inactive)	> 100 µM (inactive)	> 100 µM (inactive)	> 100 µM (inactive)	> 100 µM (inactive)	> 100 µM (inactive)	> 100 µM (inactive)	> 100 µM (inactive)	> 100 µM (inactive)	> 100 µM (inactive)	> 100 µM (inactive)	> 100 µM (inactive)	> 100 µM (inactive)	> 100 µM (inactive)	> 100 µM (inactive)	0.016 µM (active)	> 100 µM (inactive)	> 100 µM (inactive)
CN(C)CCn1c(=O)c2ccc(NCCNCCO)c3c(=O)c4cc(O)ccc4n(c1=O)c23	0.839 µM (active)	1.01 µM (active)	0.665 µM (active)	0.61 µM (active)	0.634 µM (active)	1.47 µM (inactive)	2.42 µM (inactive)	17.1 µM (inactive)	3.57 µM (inactive)	2.2 µM (inactive)	1.79 µM (inactive)	0.483 µM (active)	1.49 µM (inactive)	1.18 µM (inactive)	10.9 µM (inactive)	2.58 µM (inactive)	0.607 µM (active)	0.586 µM (active)	1.93 µM (inactive)	0.281 µM (active)
COc1cccc2c1cc([N+](=O)[O-])c1c(C(=O)O)cc3c(c12)OCO3 [ARISTOLOCHIC ACID]	33.7 µM (inactive)	39.4 µM (inactive)	0.889 µM (active)	> 78 µM (inactive)	1.31 µM (inactive)	31.4 µM (inactive)	46.8 µM (inactive)	38.1 µM (inactive)	27.3 µM (inactive)	> 100 µM (inactive)	25.4 µM (inactive)	23.7 µM (inactive)	44 µM (inactive)	24.7 µM (inactive)	39.4 µM (inactive)	43.4 µM (inactive)	45.9 µM (inactive)	23.4 µM (inactive)	29.4 µM (inactive)	28.1 µM (inactive)
O=c1ccc2ccc(O)cc2o1 [UMBELLIFERONE]	> 100 µM (inactive)	> 100 µM (inactive)	> 100 µM (inactive)	> 100 µM (inactive)	> 100 µM (inactive)	> 100 µM (inactive)	> 100 µM (inactive)	> 100 µM (inactive)	> 100 µM (inactive)	> 100 µM (inactive)	> 100 µM (inactive)	> 100 µM (inactive)	> 100 µM (inactive)	> 100 µM (inactive)	> 100 µM (inactive)	> 100 µM (inactive)	> 100 µM (inactive)	> 100 µM (inactive)	> 100 µM (inactive)	> 100 µM (inactive)
